Measurements from US20250319063A1, “METHODS AND COMPOUNDS FOR RESTORING MUTANT P53 FUNCTION” (PMV PHARMACEUTICALS, INC., priority 2022, published 2025).
Like-named read-outs stand apart in the source and are kept apart here.

Key:
[1] = tested on: Prostate-Specific Antigen; assay: Prostate-Specific Antigen (PSA) assessment in CRPC patients; assay type: in vivo, human; details: metastatic castration-resistant prostate cancer patient, 2,000 mg QD (Example 10)
Description: Patient cohorts 1 through 3 were administered with 150 mg QD to 600 mg QD of Compound 1. Patient cohorts 4 through 7 were administered with 1150 mg QD to 1500 mg BID of Compound 1. The same methods of assessment (e.g., CT, MRI, bone scan) and the same technique were used at baseline and throughout the study to ensure comparability. Scans were performed immediately following bolus contrast administration using a standard volume of contrast, an identical contrast agent, and preferably the same scanner. Where appropriate (i.e., part of standard of care and clinically indicated), fluorodeoxyglucose-positron emission tomography (FDG PET) data were also obtained. In addition, patients with Castration-resistant prostate cancer (CRPC) had Prostate-Specific Antigen (PSA) assessments within 7 days of imaging assessments.

CNC(=O)c1ccc(NCC#Cc2cc3c(N[C@@H]4CCN(C)C[C@@H]4F)cccc3n2CC(F)(F)F)c(OC)c1 [Compound 1, 4-((3-(4-(((3S,4R)-3-fluoro-1-methylpiperidin-4-yl)amino)-1-(2,2,2-trifluoroethyl)-1H-indol-2-yl)prop-2-yn-1-yl)amino)-3-methoxy-N-methylbenzamide]
maximum tolerated dose (Phase 1 dose escalation): 1500 mg BID | daily dose tolerated (female, human, in vivo): ≤ 2,500 mg | Diarrhea (TRAE), patients (human, in vivo): 5 n | Most frequent treatment-related AEs (>15%) (human, in vivo): nausea, vomiting, AST/ALT increase, anemia, blood creatinine increase, and fatigue | Vomiting (TRAE), patients (human, in vivo): 5 n | daily dose tolerated (human, in vivo): ≤ 2,000 mg | tolerance of treatment (human, in vivo): overall good tolerance of treatment with mild nausea and elevated LFTs that resolved with steroids | Dose limiting toxicities (human, in vivo, 21 days): Grade 3 AST/APT increase and grade 3 acute kidney injury | PSA response (decrease) [1]: > 50%
